The test system of the assay is F. tularensis subsp. holarctica. In words: microbe, parasite or virus in culture. In kind it is cell-based, Francisella tularensis subsp. holarctica. To be noted: Francisella tularensis, 48 h.

In brackets after ≈: the same amount, converted by molar mass.

`CC[C@H]1OC(=O)[C@H](C)[C@@H](O[C@H]2C[C@@](C)(OC)[C@@H](O)[C@H](C)O2)[C@H](C)[C@@H](O[C@@H]2O[C@H](C)C[C@H](N(C)C)[C@H]2O)[C@](C)(O)C[C@@H](C)C(=O)[C@H](C)[C@@H](O)[C@]1(C)O` [Erythromycin] came in with an MIC50 of 8 µg/mL (≈ 10.9 µM). For the compound `C=C[C@]1(C)C[C@@H](OC(=O)CS[C@@H]2CC[C@@H](N)C[C@H]2O)[C@]2(C)[C@H](C)CC[C@]3(CCC(=O)[C@H]32)[C@@H](C)[C@@H]1O` [Lefamulin, 14-O-{[(1R, 2R, 4R)-4-amino-2-hydroxy-cyclohexylsulfanyl]-acetyl}-mutilin], the MIC50 is 4 µg/mL (≈ 7.88 µM). The MIC (read-out: MIC Range) fell in the range of 0.5 to 8 µg/mL (≈ 0.985 to 15.8 µM).
